The results in this text go back to PubChem BioAssay AID1117361 (Southern Research Institute, 2015).

What is called IC50 is the concentration at which inhibition is half-maximal.

Protein Tat (Human immunodeficiency virus type 1 group M subtype B (isolate HXB2)), sequence (P04608 whole entry, looked up): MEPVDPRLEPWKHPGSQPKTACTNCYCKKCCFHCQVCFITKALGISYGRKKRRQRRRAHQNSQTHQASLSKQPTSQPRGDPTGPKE

This assay addresses Protein Tat (Human immunodeficiency virus type 1 group M subtype B (isolate HXB2)) (UniProt P04608). As to the kind of experiment: inhibitors of Tat binding to TAR RNA, dose response, counter-screen for Vif-APOBEC3G degradation inhibitor project, biochemical, fluorescence polarization, FAM-labeled TAR RNA (AID 1117361).
In the case of `O=[N+]([O-])c1ccc(Sc2nc3ccccc3o2)c([N+](=O)[O-])c1`, the IC50 is 16.4 µM. Regarding `Clc1ccc(-c2cn3cccnc3n2)cc1Cl`, the concentration for half-maximal inhibition (IC50) was 90.9 µM. As to `CCc1nc2oc3cc(OC)ccc3c(=O)c2c(=O)n1Cc1ccco1`, the half-maximal inhibitory concentration (IC50) is 24 µM. Take `O=C(Cc1ccccc1)NC(Nc1ccccc1)C(Cl)(Cl)Cl` (stereo unspecified): the IC50 is 87.8 µM. The same measure for `Nc1nc(-c2ccco2)c(-c2ccco2)s1`: 2.39 µM; for `N#CC1=C(N)OC2=C(CCC/C2=C/c2ccoc2)C1c1ccoc1` (stereo unspecified): 7.35 µM; for `Cc1ccc(NC(=O)CN(C)C(=O)c2cccc(-n3cccc3)c2)cc1`: 38 µM. Regarding `Cc1noc(/C=C/c2ccco2)c1S(=O)(=O)N1CCC(C(=O)NCc2ccco2)CC1`, the IC50 was 6.93 µM. As for `CCCn1c(=N)n(CC(O)c2ccco2)c2ccccc21` (stereo unspecified), the half-inhibitory concentration (IC50) was 78.2 µM.

For `Cc1cc(C)nc(N2CCC(C(=O)O)CC2)n1`, the IC50 was 72.8 µM. For `O=C(Nc1ccn(-c2ccccc2)n1)c1ccccc1Br`, the IC50 is 30.2 µM. For `O=C(O)/C(=C/c1ccco1)NC(=O)c1ccccc1`, the IC50 was 15.3 µM. The result for `C=C(C)C(=O)Nc1cccc(C2=NOC3(C2)C[C@@H](C(N)=O)N(C(=O)CCCCC)C3)c1` (stereo partly specified) reads 5.76 µM. Consider `Cc1nc2ncccn2c1-c1csc(NCc2ccco2)n1`, for which the IC50 is 6.08 µM.

With `CN1CCc2cccc3c2[C@H]1Cc1ccc(O)c(O)c1-3`, the IC50 was 19.1 µM. The same measure for `NC1=NC(=O)/C(=C\c2ccco2)S1`: 6.09 µM. As to `O=C(O)c1ccc2c(c1)C1C=CCC1C(c1ccncc1)N2` (stereo unspecified), the half-inhibitory concentration (IC50) is 6.37 µM.

In the case of `CN(C)C(CNC(=O)c1cccnc1Sc1ccccc1)c1ccco1` (stereo unspecified), the IC50 was 68.7 µM. In the case of `CC1=C(C#N)C(=O)N(C2CCS(=O)(=O)C2)C(=O)/C1=C\c1ccco1` (stereo unspecified), the concentration for half-maximal inhibition (IC50) was 2.88 µM.

Regarding `CCCCN1C(=O)/C(=C/C=C/c2ccco2)C(=O)NC1=S`, the IC50 was 21.7 µM.

Consider `CC(=O)c1ccc(S(=O)(=O)Nc2cccc(-n3cnnn3)c2)cc1`, for which the concentration for half-maximal inhibition (IC50) is 74.2 µM.

Take `COCCNC(=O)Nc1ccc2nc(-c3ccco3)c(-c3ccco3)nc2c1`: the IC50 was 2.17 µM. `CCOC(=O)NC1(NC2CCCCC2)Oc2ccccc2O1`: the IC50 is 88.4 µM. On to `Cc1cc(NC(=O)Cc2cccs2)no1`, for which the half-inhibitory concentration (IC50) was 55.9 µM. On to `CCOc1cccc(=O)c2c(C)n(Cc3ccco3)c(C)c12`, for which the IC50 is 2.95 µM. For `Cc1ccc(-c2ccc(CCC(=O)O)n2NC(N)=S)cc1`, the half-maximal inhibitory concentration (IC50) is 17.8 µM. Consider `Cc1cc(C(=O)CSc2nnnn2C)c(C)n1CCc1ccc(Cl)cc1`, for which the IC50 was 84.6 µM. Consider `Oc1ccc(N=Cc2ccc(OCc3ccccc3)cc2)cc1`, for which the IC50 is 47.5 µM. `CCOC(=O)C1CCCN(C(=O)c2cc(-c3ccco3)nc3ccccc23)C1` (stereo unspecified): the IC50 is 27.8 µM. As to `Cc1cccc(-n2c(Cc3cc(=O)[nH]c(=O)[nH]3)nnc2SCC(=O)NCC2CCCO2)c1` (stereo unspecified), the IC50 is 58.5 µM.

`CCCCN1C2CCCC1CC(NC(=O)c1ccc(OC)c(OC)c1)C2` (stereo unspecified): the 50% inhibitory concentration (IC50) was 78.3 µM. In the case of `Cc1nc2c(=O)[nH]c(=S)[nH]c2[nH]c1=O`, the IC50 is 13.2 µM.

As to `Oc1cc2c(cc1O)[C@H]1c3ccc(O)c(O)c3OC[C@@]1(O)C2`, the half-maximal inhibitory concentration (IC50) is 15.7 µM.

With `CC(C)(C)NC(=O)C(c1ccncc1)N(C(=O)CNC(=O)c1ccco1)c1ccc2c(c1)OCO2` (stereo unspecified), the concentration for half-maximal inhibition (IC50) is 44.1 µM. The result for `S=c1[nH]nc(COc2ccc3c(c2)OCO3)n1-c1ccccc1` reads 1.03 µM. As to `CN(CC(=O)Nc1cccc(F)c1)C(=O)c1cccc(-n2cccc2)c1`, the concentration for half-maximal inhibition (IC50) was 40.9 µM. The same measure for `CCn1c(SC(C)C(=O)O)nc2sc3c(c2c1=O)CCC3` (stereo unspecified): 70.4 µM; for `O=C(Nc1ccc2nc(-c3ccco3)c(-c3ccco3)nc2c1)N1CCCCCC1`: 3.56 µM; for `CCC(C)C(NC(=O)[C@@H](NC(=O)c1ccccc1F)C(C)C)C(=O)OC` (stereo partly specified): 30.7 µM.

Regarding `Cc1ccc(C(=O)C2=C(O)C(=O)N(c3ncccn3)C2c2ccc(F)cc2)o1` (stereo unspecified), the concentration for half-maximal inhibition (IC50) is 82.7 µM. As to `Cc1ccc(S(=O)(=O)OCC(=O)Nc2ccc(C(=O)O)c(O)c2)cc1`, the IC50 was 75.3 µM. The result for `O=C(COC(=O)c1ccccc1)Nc1ncc([N+](=O)[O-])s1` reads 20.5 µM; that for `CC(C)C(C(=O)O)N1C(=O)/C(=C/C=C/c2ccco2)SC1=S` (stereo unspecified), 1.4 µM. The result for `O=C(NCc1ccccn1)c1coc(=O)c(Br)c1` reads 88.3 µM; that for `COc1cc(CNc2ccc(O)cc2)cc(Br)c1OCc1ccccc1`, 34.5 µM; that for `Cc1ccc(C(=O)N/N=C\c2cc(Br)c(Br)o2)cn1`, 2.34 µM. With `O=c1cc(-c2ccc(O)cc2)oc2c(O)c(O)c(O)c(O)c12`, the half-inhibitory concentration (IC50) was 74.9 µM.

Turning to `O=C1/C(=C/c2ccco2)SC(=S)N1c1cccnc1`, the half-maximal inhibitory concentration (IC50) is 3.9 µM. The result for `CN1C(=O)/C(=C/c2ccco2)SC1=Nc1cccc(C(=O)O)c1` reads 7.93 µM.

On to `CCc1ccc(N2C(=O)NC(=O)/C(=C\C=C\c3ccco3)C2=O)cc1`, for which the half-maximal inhibitory concentration (IC50) was 45 µM. `Cc1ccc(/C=c2\sc3nc(-c4cccs4)nn3c2=O)o1`: the half-inhibitory concentration (IC50) is 13.6 µM. As for `COc1ccccc1C1C=C(c2ccc(C)cc2)Nc2nnnn21` (stereo unspecified), the concentration for half-maximal inhibition (IC50) is 84.4 µM. Regarding `O=C(Cc1cc(=O)[nH][nH]1)N/N=C/C=C/c1ccccc1`, the concentration for half-maximal inhibition (IC50) was 43.1 µM. On to `O=C1NC(=O)N(c2ccccc2)C(=O)/C1=C\c1ccc([N+](=O)[O-])s1`, for which the IC50 is 10.7 µM. `N#CC1=C(N)C2=C(N3CCCCC3)CCCC2C1(C#N)C#N` (stereo unspecified): the IC50 was 5.45 µM. For `CCOc1ccc2[nH]c(=O)c(CN(Cc3nnnn3Cc3ccco3)C3CCCCC3)cc2c1`, the half-inhibitory concentration (IC50) is 24.9 µM. Regarding `CN1CCc2c(sc3c2c(NCc2ccco2)nc2nnnn23)C1`, the concentration for half-maximal inhibition (IC50) was 79.8 µM.

Consider `COc1cccc(NS(=O)(=O)c2ccc3c(c2)C2C=CCC2C(c2ccc(C(=O)O)cc2)N3)c1` (stereo unspecified), for which the IC50 is 3.59 µM.

Consider `CC(C)C1Nc2ccc(C(=O)O)cc2C2C=CCC21` (stereo unspecified), for which the IC50 was 4.93 µM. For the compound `CSc1nc(NCCOCCO)c2sc3nc(-c4ccco4)c4c(c3c2n1)CCC4`, the IC50 is 9.42 µM.

For `O=C(O)C1Nc2c(O)cc(Cl)c([N+](=O)[O-])c2C2C=CCC12` (stereo unspecified), the IC50 is 1.64 µM. In the case of `CC1=NN(c2cccc(C(=O)O)c2)C(=O)/C1=C\C=C\c1ccco1`, the 50% inhibitory concentration (IC50) is 12 µM.

Take `O=C(NCCCO)Nc1ccc2nc(-c3ccco3)c(-c3ccco3)nc2c1`: the half-maximal inhibitory concentration (IC50) is 2.01 µM. The same measure for `O=C(O)CSc1c2c(nc3cc(C(=O)Nc4cccc(C(F)(F)F)c4)ccc13)CCC2`: 56.2 µM; for `CCOc1cccc(CNc2ccc(O)cc2)c1OCc1ccccc1Cl`: 63 µM. The same measure for `CCC1C/C(=C/c2ccco2)C(=O)/C(=C/c2ccco2)C1` (stereo unspecified): 12.6 µM; for `O=C(O)c1cc2cccc(S(=O)(=O)N3CCOCC3)c2cc1O`: 80.3 µM. For `CCOc1cccc(=O)c2c(C)n(C)c(C)c12`, the concentration for half-maximal inhibition (IC50) is 55.2 µM. The result for `Cc1cccc(-n2c(Cc3cc(=O)[nH]c(=O)[nH]3)nnc2SC(C)C)c1` reads 28.2 µM; that for `CCOC(=O)C1=C(N)n2c(s/c(=C/c3ccco3)c2=O)=C(C(=O)OC)C1c1ccco1` (stereo unspecified), 9.78 µM; that for `O=C(CSc1nnnn1-c1ccccc1)Nc1ncc2c(n1)CC(c1ccco1)CC2=O` (stereo unspecified), 58.5 µM. Take `C/C(=C\C(=O)c1ccc(C)cc1)Nc1cccc(O)c1`: the IC50 is 10.4 µM. On to `CCN1C(=O)/C(=C\c2ccc([N+](=O)[O-])s2)C(=O)NC1=S`, for which the IC50 was 4.07 µM. The same measure for `Cc1cccc(NC(=O)CNC(=O)c2cccc(-n3cccc3)c2)c1C`: 63.3 µM.

For `COC(=O)c1ccc(CC(=O)c2c(C)cc(O)cc2O)o1`, the IC50 is 11.2 µM.

On to `CCOc1ccc(N(CC(=O)NC(C)(C)C)S(=O)(=O)c2c(C)noc2C)cc1`, for which the IC50 was 5.37 µM. Take `CCN1CCN(c2cc(N3CCN(C(=O)c4ccco4)CC3)c3c4c(onc24)-c2ccccc2C3=O)CC1`: the IC50 was 5.77 µM. With `Cc1oc(C)c2c(=O)ccc3c(c12)OC(N)=C(C#N)C3c1ccccc1` (stereo unspecified), the IC50 was 81.9 µM.

As to `CNc1ccc(Br)cc(C(=O)/C=C/c2cc(OC)ccc2OC)c1=O`, the IC50 was 9.75 µM. Turning to `CC(C)NC[C@@H](O)c1ccc(O)c(O)c1`, the IC50 is 5.21 µM. With `Cc1ccc(/C=C/C(=O)Nc2cccc(S(=O)(=O)N3CCOCC3)c2)o1`, the IC50 was 89.1 µM.

Turning to `C=C(C)C(=O)Nc1ccc2c(c1)OCCOCCOCCO2`, the IC50 was 21.6 µM. As to `Cc1cc(C(=O)CSc2nnnn2-c2ccccc2)c(C)n1CC1CCCO1` (stereo unspecified), the IC50 is 35 µM. For `Cc1cccc(C)c1NC(=O)COC(=O)c1cc(-c2cccnc2)nc2ccccc12`, the IC50 is 84.6 µM.

With `O=C(NC1CCC(C(=O)O)CC1)OCc1ccccc1` (stereo unspecified), the IC50 was 79.8 µM. The same measure for `O=C(O)Cc1ccc(N=Nc2c(O)c(C(=O)O)cc3ccccc23)cc1`: 27.5 µM. For the compound `C=C(C)C(=O)Nc1cccc(C2=NOC3(C2)C[C@H](C(N)=O)N(C(=O)C(c2ccccc2)c2ccccc2)C3)c1` (stereo partly specified), the half-maximal inhibitory concentration (IC50) was 31.7 µM. `O=C1C=Cc2ccccc2C1=O`: the IC50 is 30.5 µM. `COc1ccc(O)c(C(=O)C2c3ccccc3C(=O)N2c2ccc(C)cc2)c1` (stereo unspecified): the IC50 is 0.303 µM.

With `CCC(=O)NNc1ncnc2ccccc12`, the concentration for half-maximal inhibition (IC50) is 44.5 µM. Regarding `C/C(=N\Nc1ccc(Cl)c(C(=O)O)c1)c1ccc[nH]1`, the IC50 is 21.4 µM. On to `CC(=O)N1CCN(c2nc(-c3ccco3)c3c(c2C#N)CC(C)(C)SC3)CC1`, for which the half-maximal inhibitory concentration (IC50) was 58.8 µM. Take `O=C(COc1ccccc1Cl)c1ccc[nH]1`: the 50% inhibitory concentration (IC50) is 14.6 µM. Take `O=C1CCCC(O)=C1N=Nc1ccc(C(=O)O)cc1`: the IC50 was 6.47 µM. As to `CCOC(=O)COc1nc(-c2ccco2)cc(-c2ccco2)c1C#N`, the concentration for half-maximal inhibition (IC50) was 8.34 µM. For the compound `CSc1ccc(/C=N/Nc2cccc(C(=O)O)c2)cc1`, the IC50 is 5.81 µM. On to `COC(=O)c1ccc(COc2ccccc2/C=C(\C#N)C(=O)Nc2c(C)cc(C)cc2C)cc1`, for which the concentration for half-maximal inhibition (IC50) was 46.2 µM.

Take `N=C1/C(=C\c2ccc(SCc3ccco3)o2)C(=O)N=C2SC=NN12`: the half-maximal inhibitory concentration (IC50) was 2.49 µM.

Regarding `CCOC(=O)C1=C(N)n2c(s/c(=C\c3ccco3)c2=O)=C(C(=O)OCC)C1c1ccco1` (stereo unspecified), the IC50 is 7.85 µM. The result for `O=[N+]([O-])c1cc(CN2CCCC2)c2cccnc2c1O` reads 8.94 µM; that for `CCOC(=O)Cc1cc(=O)n2[nH]c(C)cc2n1`, 78.3 µM.
